From patent publication EP4581948A1, “AEROSOLISABLE MATERIAL FOR USE IN AN ARTICLE” (BT DE Investments Inc., priority 2024, dated 2025)

Test: Solubility study: maximum solubility of terpenes in solvent by stepwise addition and visual inspection
Type: physicochemical
Details: ambient temperature (18 to 22 degrees Celsius); for Max. solubility of terpenes in solvent (% w/w) BA: solvent benzyl alcohol (BA); for Max. solubility of terpenes in solvent (% w/w) PG: solvent propylene glycol (PG); for Max. solubility of terpenes in solvent (% w/w) PG + 8% BA: solvent propylene glycol with 8%w/w benzyl alcohol
Protocol: A solubility study was carried out to assess the solubility of a range of terpenes in propylene glycol (PG) and benzyl alcohol (BA), and a mixture of propylene glycol (PG) and 8%w/w benzyl alcohol (BA) (materials were sourced from Sigma).
In particular, the maximum solubility at ambient temperature was assessed following the stepwise addition of each terpene to the relevant solvent or solvent mixture. Each terpene was added in aliquots to a solvent (PG, BA or a combination of PG and BA, where the BA was present in an amount of 8%w/w of the PG) and stirred at ambient temperature (18 to 22 degrees Celsius) until the terpene had fully solubilized. The next aliquot of terpene was then added.

SMILES | Max. solubility of terpenes in solvent (% w/w) BA [% w/w] | Max. solubility of terpenes in solvent (% w/w) PG [% w/w] | Max. solubility of terpenes in solvent (% w/w) PG + 8% BA [% w/w]
CC(C)=CCCC(C)CCO (stereo not drawn) [beta-citronellol] | 71.2 | 47.0 | 70.3
C=C[C@](C)(O)CCC=C(C)C [R- linalool] | 73.2 | 72.6 | 74.3
C=CC(C)(CCC=C(C)C)OC(C)=O (stereo not drawn) [Linalyl acetate] | 34.5 | 1.4 | 6.0
C=C1CC/C=C(\C)CC[C@@H]2[C@@H]1CC2(C)C [beta-caryophyllene] | 11.0 | 1.1 | 2.4
